≈ marks a conversion by molar mass, not a printed value.
Legend:
HIV-WT virus = test: Drug susceptibility assay (luciferase reporter in TZM-bl cells); assay type: cell-based, human immunodeficiency virus; conditions: TZM-bl cells infected with HIV-WT, 48 h
Experimental: DTG and hEB-DTG luciferase expression levels were measured at different concentrations against TZM-bl reporter cell line in the presence of HIV-WT virus using the Britelite Plus Ultra-High Sensitivity Luminescence Reporter Gene Assay System (Revvity, MA, USA) according to the manufacturer’s protocol. TZM-bl cells were seeded in clear bottom white 96-well plate in a total volume of 200 μl DMEM-10 complete (+ 10 % FBS + 1 % penicillin/streptomycin) at a density of 1 × 10^4 cells/well. After 24 h, the cells were infected with the HIV-WT virus and treated with DTG and hEB-DTG in a concentration range (serial diluted 1:100) from 3 × 10^−1 mg/mL to 3 × 10^−15 mg/mL in PRF-10 complete media (+10 % FBS + 1 % penicillin/streptomycin). After 48 h of incubation, the cells were subjected to Britelite Plus Ultra-High Sensitivity Luminescence Reporter Gene Assay System (Revvity). The Britelite plus Lyophilized Substrate was reconstituted with the given Britelite Plus Reconstitution Buffer. After gently inverting and settling the solution for 5 min, 100 μL of the reconstituted Britelite Substrate solution was added to each well containing 100 μL of cells in the medium. Luminescence was measured with a Varioskan LUX Multimode Microplate Reader precisely after 2 min. Untreated/infected cells were used as baseline control. The inhibitory concentrations of each drug were presented as a percentage of OD value of the control cells. For each assay run, data points were collected in triplicate.

[1] = PK study: DTG in serum by HPLC-MS; assay type: in vivo, mice
Experimental: Five (5) mg/kg DTG, or hEB-DTG containing equivalent amount of DTG were i.v. injected into mice. After 1, 4, 12, 24 or 48 h, serum and LNs were collected. Samples were homogenized and vortex in 1 mL mixture of water and methanol (1/1, v/v), and then another 1 mL mixture of methanol and acetonitrile (1/1, v/v) was added for extraction. After centrifugation at 12,500 g for 10 min, the supernatants were collected for measurement under HPLC-MS with a previously reported method. For hydrolysis of the ester bond in hEB-DTG to release free DTG, the biological samples suspension mentioned above were incubated in 300 mg/mL guanidine hydrochloride solution at 80 °C for 24 h before extraction.

TZM-bl cells = test: Cell viability assay (CellTiter-Glo 2.0); assay type: cell-based; conditions: 48 h
Experimental: DTG and hEB-DTG prodrug cytotoxicity was measured at different concentrations against TZM-bl reporter cell line in the presence or absence of HIV-WT virus using the CellTiter-Glo™ 2.0 Assay (Promega, WI, USA) according to the manufacturer’s protocol. TZM-bl cells were seeded in the 96-well white plate at a density of 1 × 10^4 cells/well, and after 24 h, the cells were infected with HIV-WT virus and treated with DTG and hEB-DTG in a concentration range (diluted 1:100) from 3 × 10^−1 mg/mL to 3 × 10^−15 mg/mL. After 48 h, cells were subjected to CellTiter-Glo™ 2.0 Assay (Promega). The CellTiter-Glo™ 2.0 Reagent was equilibrated to room temperature and gently mixed. 100 μL of CellTiter-Glo™ 2.0 Reagent was added to each well containing 100 μL of cells in the medium. Contents were shaken in an orbital shaker for 2 min and incubated at room temperature for precisely 10 min, and then luminescence was measured with a Varioskan LUX Multimode Microplate Reader. Untreated/infected cells were used as a baseline control. Viability of cells was presented as a percentage of OD values of the control cells. For each assay run, data points were collected in triplicate.

Aqueous solubility = assay type: physicochemical; conditions: water
BSA = BSA (Bos taurus, UniProt P02769); test: Gel retardation study with BSA; assay type: binding, bovine; conditions: in words
BSA, sequence (P02769 25-607): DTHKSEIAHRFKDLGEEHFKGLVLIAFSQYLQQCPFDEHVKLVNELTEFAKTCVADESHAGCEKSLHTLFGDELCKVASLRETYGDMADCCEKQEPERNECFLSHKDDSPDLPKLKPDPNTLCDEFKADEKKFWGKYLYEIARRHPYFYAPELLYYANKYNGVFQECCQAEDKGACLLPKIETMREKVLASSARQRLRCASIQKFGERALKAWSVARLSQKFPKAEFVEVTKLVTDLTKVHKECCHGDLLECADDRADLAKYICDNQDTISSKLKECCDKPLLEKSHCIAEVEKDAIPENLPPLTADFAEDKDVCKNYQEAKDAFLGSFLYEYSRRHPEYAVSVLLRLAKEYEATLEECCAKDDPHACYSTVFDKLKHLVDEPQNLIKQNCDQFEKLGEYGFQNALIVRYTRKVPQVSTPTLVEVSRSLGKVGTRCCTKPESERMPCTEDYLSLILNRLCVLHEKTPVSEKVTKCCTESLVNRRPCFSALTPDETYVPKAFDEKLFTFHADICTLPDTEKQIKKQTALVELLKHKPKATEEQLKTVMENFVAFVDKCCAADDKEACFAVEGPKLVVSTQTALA
Experimental: Twenty (20) μg EB, hEB, hEB-platin, or hEB-DTG were mixed with or without various amounts of BSA, globulin, fibrinogen or FBS in 200 μL saline water, then 40 μL of the mixed solution were loaded to 1.5 % agarose gel and run under 120 V for 30 min.

HEK293T cells = test: Cellular uptake study in vitro (flow cytometry); assay type: cell-based; conditions: in words
Experimental: HEK293T or HUVEC cells were seeded to 6-well plates. After overnight incubation, the culture medium was replaced by fresh medium containing 10 μM EB and 2, 5, or 20 mg/mL BSA for incubation of 0.5, 1 or 3 h at 37 °C. Later, cells were washed with cold PBS and fixed with PBS containing 4 % (w/v) formaldehyde.
Cellular uptake of different treatments was quantified by flow cytometry. Fluorescence was examined at an excitation wavelength of 532 nm and an emission wavelength of 660 nm. 10 × 10^4 events were collected for each sample.

[2] = Distribution in LN tissue and cells in LNs after i.v. injection (fluorescence microscopy, flow cytometry); assay type: in vivo; conditions: in words
Experimental: Five (5) μM/kg EB, hEB or hEB-DTG were i.v. injected into mice pretreated intraperitoneally with or without 2.5 mg/kg LPS for 24 h. After 24 h, LNs from different sites were collected and their signals of EB were checked under fluorescent microscopy. To evaluate the EB signals in various types of cells, LNs were disrupted mechanically using scissors, digested with a mixture of deoxyribonuclease I (0.3 mg/mL, Sigma-Aldrich) and TL Liberase (0.25 mg/mL, Roche, IN, USA) in serum-free RPMI-1640 at 37 °C for 30 min, and dispersed through a 40 μm cell strainer (BD Biosciences, CA, USA). After red blood cell lysis, live/dead cell discrimination was performed using a Zombie NIR Fixable Viability Kit (BioLegend, CA, USA, dilution: 1/1000) at 4 °C for 30 min in DPBS. Surface staining was performed at 4 °C for 30 min in FACS staining buffer (1 × phosphate-buffered saline/5 % FBS/0.5 % sodium azide) containing designated antibody cocktails (PerCP anti-mouse CD45 antibody, Brilliant Violet 785 anti-mouse CD4 antibody, FITC anti-mouse CD8 antibody, APC anti-mouse CD11b antibody, APC/Cyanine7 anti-mouse F4/80 antibody, Pacific Blue anti-mouse CD19 antibody and AF647 anti-mouse CD27 antibody; dilution: 1/200 for all antibodies). Flow cytometry was performed with LSRII (BD Biosciences) and Aurora (Cytek Biosciences, CA, USA) instruments and analyzed by FlowJo (BD Biosciences). The EB signals in each type of cell were quantified as mentioned above.

[3] = Release of DTG from hEB-DTG (storage stability and in vitro release kinetics, HPLC-MS); assay type: physicochemical; conditions: for DTG released (cumulative): PBS
HUVEC monolayer = test: Transwell study: transport across a HUVEC monolayer, flow cytometry of HEK293T cells in lower chamber; assay type: cell-based; conditions: albumin-bound, 8 h, in words
Experimental: HEK293T were seeded to 6-well plates as lower chamber and HUVEC were seeded to Corning (NY, USA) 6-well plate inserts (0.4 μm pore size) in another plate as upper chamber, respectively. After incubation and the cell layer on the upper chamber became intact, the culture medium in the inserts was replaced by fresh medium containing 0, 5 or 20 μg/mL filipin and 0 or 10 μg/mL LPS for overnight incubation. Next, the culture medium in the inserts was replaced with fresh medium containing 10 μM EB, hEB or hEB-DTG and 2 mg/mL BSA, then the inserts were moved to the wells cultured with HEK293T cells for incubation of 8 h at 37 °C. After that, HEK293T cells in the lower chambers were washed with cold PBS.
EB signals in HEK293T cells were quantified by flow cytometry. Fluorescence was examined at an excitation wavelength of 532 nm and an emission wavelength of 660 nm. 10 × 10^4 events were collected for each sample.

SMILES | concentrations that potently inhibited HIV-WT replication (HIV-WT virus) [ng/mL] | clearance ([1]; mouse, serum, iv, single i.v. injection of free DTG 5 mg/kg, one-compartment model, read-out: CL, free DTG in serum (converted)) [mL/min] | half-life ([1]; mouse, serum, iv, single i.v. injection of free DTG 5 mg/kg, one-compartment model, read-out: t1/2, free DTG in serum (converted)) [h] | concentrations above which cell viability began to decline (TZM-bl cells) | concentrations with minimal cytotoxicity (TZM-bl cells) | solubility (Aqueous solubility) [µg/mL] | binding affinity for BSA (BSA) | cellular uptake (HEK293T cells) | antiviral potency relative to free DTG (HIV-WT virus) | fluorescence signal in LNs ([2]; 24 h post i.v. injection) | uptake by immune cell populations in LNs ([2]; flow cytometry) | released DTG concentration in blood vs free DTG group ([1]; 1 h post-injection) | DTG released (cumulative) ([3]; 37 °C, over 96 h) | DTG released (cumulative) ([3]; 37 °C, within 24 h) | DTG release in serum compared with PBS ([3]; 37 °C, serum) | DTG released ([3]; over 30 days at room temperature, storage conditions) [%] | transport across endothelial cell monolayer (HUVEC monolayer)
C[C@@H]1CCO[C@H]2Cn3cc(C(=O)NCc4ccc(F)cc4F)c(=O)c(O)c3C(=O)N12 [DTG, dolutegravir] | ≥ 10 | 0.00411 | 3.61 | exceeded 1 μg/mL | below 100 ng/mL | 40 (≈ 0.0954 mM) |  |  |  |  |  |  |  |  |  |  | 
Cc1cc(-c2ccc(/N=N/c3ccc4c(S(=O)(=O)O)cc(S(=O)(=O)O)c(N)c4c3O)c(C)c2)ccc1N [hEB, half-truncated Evans Blue] |  |  |  |  |  |  | retained strong binding affinity |  |  |  |  |  |  |  |  |  | 
Cc1cc(-c2ccc(NCC(=O)Oc3c4n(cc(C(=O)NCc5ccc(F)cc5F)c3=O)C[C@@H]3OCC[C@@H](C)N3C4=O)c(C)c2)ccc1/N=N/c1ccc2c(S(=O)(=O)O)cc(S(=O)(=O)O)c(N)c2c1O [hEB-DTG] | ≥ 10 |  |  | exceeded 1 μg/mL | below 100 ng/mL | 9640 (≈ 9.62 mM) | maintained strong binding ability | efficiently internalized | slightly less potent | comparable to that of hEB alone | significant EB signals were detected in all cell types analyzed | slightly higher | ~ 60% | ~ 30% | slower | 0.83 | successfully transported

Reference: PMC13338763, “Harnessing albumin as a carrier for the delivery of anti-HIV drugs to the lymphatic system” (Acta biomaterialia, 2025)
